Results on twelve compounds are retold here after patent US20260193271A1, “PAN-KRAS INHIBITOR COMPOUND” (ADLAI NORTYE BIOPHARMA CO., LTD., priority 2022, published 2026).

In one assay the test system is AsPC-1 (G12D). The experiment in a line: In vitro cell proliferation inhibition test (CellTiter-Glo), AsPC-1. The format is cell-based. The note with it: Homo sapiens, ASPC1, AsPC-1 pancreas cell line, KRAS (p.G12D), 72 h co-incubation. The method in brief:
(§1)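 Cells were seeded at 1000-5000/well by doubling time and cultured overnight at 37 °C, 5% CO2. They were then exposed for 72 h to 10-point, 3-fold compound dilutions (final top 10 μM), and viability was read by CellTiter-Glo luminescence. IC50 came from normalized signals fitted by four-parameter regression.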
(In general: In ATP-based viability assays light output follows the ATP content of the culture.)

The next assay concerns SW480 (G12V). The experiment in a line: In vitro cell proliferation inhibition test (CellTiter-Glo), SW480. The format is cell-based. The settings on record: Homo sapiens, SW480 colon cell line, KRAS (p.G12V), 72 h co-incubation. The method in brief: as §1

On to `CCn1c(-c2cc(-c3cnc(CN4CCS(=O)(=O)CC4)nc3)cnc2[C@H](C)OC)c2c3cc(ccc31)-c1csc(n1)C[C@H](NC(=O)[C@H]1C[C@@H]1C)C(=O)N1CCC[C@H](N1)C(=O)OCC(C)(C)C2` (atropisomer, axis not shown) [Compound 38, (1S,2S)-N-((6^3S,4S,Z)-1^2-(5-(2-((1,1-dioxidothiomorpholino)methyl)pyrimidin-5-yl)-2-((S)-1-methoxyethyl)pyridin-3-yl)-1^1-ethyl-10,10-dimethyl-5,7-dioxo-6^1,6^2,6^3,6^4,6^5,6^6-hexahydro-1^1H-8-oxa-2(4,2)-thiazola-1(5,3)-indola-6(1,3)-pyridazinacycloundecaphane-4-yl)-2-methylcyclopropane-1-carboxamide], for which the values for the IC50 in the assay on AsPC-1 (G12D) and with SW480 (G12V) were 66 nM and 23 nM, respectively.
With `CCn1c(-c2cc(-c3cnc(CN4CCOCC4)nc3)cnc2[C@H](C)OC)c2c3cc(ccc31)-c1csc(n1)C[C@H](NC(=O)[C@H]1[C@H](C)[C@@H]1C)C(=O)N1CCC[C@H](N1)C(=O)OCC(C)(C)C2` (atropisomer, axis not shown) [Compound 39, (1r,2R,3S)-N-((6^3S,4S,Z)-1^1-ethyl-1^2-(2-((S)-1-methoxyethyl)-5-(2-(morpholinomethyl)pyrimidin-5-yl)pyridin-3-yl)-10,10-dimethyl-5,7-dioxo-6^1,6^2,6^3,6^4,6^5,6^6-hexahydro-1H-8-oxa-2(4,2)-thiazola-1(5,3)-indola-6(1,3)-pyridazinacycloundecaphane-4-yl)-2,3-dimethylcyclopropane-1-carboxamide], the IC50 (commonly the midpoint of a concentration-inhibition curve) with AsPC-1 (G12D) came out at 0.57 nM; in the assay on SW480 (G12V), 0.48 nM.
As to `CCn1c(-c2cc(-c3ccc(=O)n(CCN4CCOCC4)c3)cnc2[C@H](C)OC)c2c3cc(ccc31)-c1csc(n1)C[C@H](NC(=O)[C@H]1C[C@@H]1C)C(=O)N1CCC[C@H](N1)C(=O)OCC(C)(C)C2` (atropisomer, axis not shown) [Compound 40, (1S,2S)-N-((6^3S,4S,Z)-1^1-ethyl-1^2-(6-((S)-1-methoxyethyl)-1′-(2-morpholinoethyl)-6′-oxo-1′,6′-dihydro-[3,3′-bipyridin]-5-yl)-10,10-dimethyl-5,7-dioxo-6^1,6^2,6^3,6^4,6^5,6^6-hexahydro-1^1H-8-oxa-2(4,2)-thiazola-1(5,3)-indola-6(1,3)-pyridazinacycloundecaphane-4-yl)-2-methylcyclopropane-1-carboxamide], the IC50 was found to be 9.2 nM in the assay with AsPC-1 (G12D) and 10 nM in the assay with SW480 (G12V).
Regarding `CCn1c(-c2cc(-c3ccc(CN4CCN(C)CC4)cn3)cnc2[C@H](C)OC)c2c3cc(ccc31)-c1csc(n1)C[C@H](NC(=O)[C@H]1C[C@@H]1C)C(=O)N1CCC[C@H](N1)C(=O)OCC(C)(C)C2` (atropisomer, axis not shown) [Compound 41, (1S,2S)-N-((6^3S,4S,Z)-1^1-ethyl-1^2-(6′-((S)-1-methoxyethyl)-5-((4-methylpiperazin-1-yl)methyl)-[2,3′-bipyridin]-5′-yl)-10,10-dimethyl-5,7-dioxo-6^1,6^2,6^3,6^4,6^5,6^6-hexahydro-1^1H-8-oxa-2(4,2)-thiazola-1(5,3)-indola-6(1,3)-pyridazinacycloundecaphane-4-yl)-2-methylcyclopropane-1-carboxamide], the figures for the IC50 in the assay on AsPC-1 (G12D) and in the assay with SW480 (G12V) were 2.6 nM and 3.7 nM, respectively.
Consider `CCn1c(-c2cc(-c3cncc(CN4CCS(=N)(=O)CC4)c3)cnc2[C@H](C)OC)c2c3cc(ccc31)-c1csc(n1)C[C@H](NC(=O)[C@H]1[C@H](C)[C@@H]1C)C(=O)N1CCC[C@H](N1)C(=O)OCC(C)(C)C2` (atropisomer, axis not shown) [Compound 42, (1r,2R,3S)-N-((6^3S,4S,Z)-1^1-ethyl-1^2-(5′-((1-imino-1-oxido-16-thiomorpholino)methyl)-6-((S)-1-methoxyethyl)-[3,3′-bipyridin]-5-yl)-10,10-dimethyl-5,7-dioxo-6^1,6^2,6^3,6^4,6^5,6^6-hexahydro-1^1H-8-oxa-2(4,2)-thiazola-1(5,3)-indola-6(1,3)-pyridazinacycloundecaphane-4-yl)-2,3-dimethylcyclopropane-1-carboxamide], for which the IC50 with AsPC-1 (G12D) is 3 nM; in the assay with SW480 (G12V) it was 3.5 nM.
On the same counts, the results for `CCn1c(-c2cc(-c3cc4c(cn3)CN(C)C4)cnc2[C@H](C)OC)c2c3cc(ccc31)-c1csc(n1)C[C@H](NC(=O)[C@H]1C[C@@H]1C)C(=O)N1CCC[C@H](N1)C(=O)OCC(C)(C)C2` (atropisomer, axis not shown) [Compound 43, (1S,2S)-N-((6^3S,4S,Z)-1^1-ethyl-1^2-(2-((S)-1-methoxyethyl)-5-(2-methyl-2,3-dihydro-1H-pyrrolo[3,4-c]pyridin-6-yl)pyridin-3-yl)-10,10-dimethyl-5,7-dioxo-6^1,6^2,6^3,6^4,6^5,6^6-hexahydro-1^1H-8-oxa-2(4,2)-thiazola-1(5,3)-indola-6(1,3)-pyridazinacycloundecaphane-4-yl)-2-methylcyclopropane-1-carboxamide] are 17 nM and 3.8 nM.
On the same counts, the results for `CO[C@@H](C)c1ncc(-c2cnc(CN3CCOCC3)nc2)cc1-c1c2c3cc(ccc3n1CC(F)(F)F)-c1csc(n1)C[C@H](NC(=O)[C@H]1[C@H](C)[C@@H]1C)C(=O)N1CCC[C@H](N1)C(=O)OCC(C)(C)C2` (atropisomer, axis not shown) [Compound 44, (1r,2R,3S)-N-((6^3S,4S,Z)-1^2-(2-((S)-1-methoxyethyl)-5-(2-(morpholinomethyl)pyrimidin-5-yl)pyridin-3-yl)-10,10-dimethyl-5,7-dioxo-1^1-(2,2,2-trifluoroethyl)-6^1,6^2,6^3,6^4,6^5,6^6-hexahydro-1^1H-8-oxa-2(4,2)-thiazola-1(5,3)-indola-6(1,3)-pyridazinacycloundecaphane-4-yl)-2,3-dimethylcyclopropane-1-carboxamide] are 0.26 nM and 0.35 nM.
With `CCn1c(-c2cc(-c3cnc4c(c3)CN(C)C4)cnc2[C@H](C)OC)c2c3cc(ccc31)-c1csc(n1)C[C@H](NC(=O)[C@H]1C[C@@H]1C)C(=O)N1CCC[C@H](N1)C(=O)OCC(C)(C)C2` (atropisomer, axis not shown) [Compound 45, (1S,2S)-N-((6^3S,4S,Z)-1^1-ethyl-1^2-(2-((S)-1-methoxyethyl)-5-(6-methyl-6,7-dihydro-5H-pyrrolo[3,4-b]pyridin-3-yl)pyridin-3-yl)-10,10-dimethyl-5,7-dioxo-6^1,6^2,6^3,6^4,6^5,6^6-hexahydro-1^1H-8-oxa-2(4,2)-thiazola-1(5,3)-indola-6(1,3)-pyridazinacycloundecaphane-4-yl)-2-methylcyclopropane-1-carboxamide], the results for the IC50 in the assay on AsPC-1 (G12D) and in the assay with SW480 (G12V) were 5.3 nM and 6.2 nM, respectively.
On to `CCn1c(-c2cc(-c3ccc(CN4CC[C@@H](F)C4)cn3)cnc2[C@H](C)OC)c2c3cc(ccc31)-c1csc(n1)C[C@H](NC(=O)[C@H]1C[C@@H]1C)C(=O)N1CCC[C@H](N1)C(=O)OCC(C)(C)C2` (atropisomer, axis not shown) [Compound 46, (1S,2S)-N-((6^3S,4S,Z)-1^1-ethyl-1^2-(5-(((R)-3-fluoropyrrolidin-1-yl)methyl)-6′-((S)-1-methoxyethyl)-[2,3′-bipyridin]-5′-yl)-10,10-dimethyl-5,7-dioxo-6^1,6^2,6^3,6^4,6^5,6^6-hexahydro-1^1H-8-oxa-2(4,2)-thiazola-1(5,3)-indola-6(1,3)-pyridazinacycloundecaphane-4-yl)-2-methylcyclopropane-1-carboxamide], for which the IC50 in the assay with AsPC-1 (G12D) turned out to be 6.1 nM; in the assay on SW480 (G12V) it was 4.1 nM.
Turning to `CCn1c(-c2cc(-c3ccc(CN4CC[C@@H](O)C4)cn3)cnc2[C@H](C)OC)c2c3cc(ccc31)-c1csc(n1)C[C@H](NC(=O)[C@H]1C[C@@H]1C)C(=O)N1CCC[C@H](N1)C(=O)OCC(C)(C)C2` (atropisomer, axis not shown) [Compound 47, (1S,2S)-N-((6^3S,4S,Z)-1^1-ethyl-1^2-(5-(((R)-3-hydroxypyrrolidin-1-yl)methyl)-6′-((S)-1-methoxyethyl)-[2,3′-bipyridin]-5′-yl)-10,10-dimethyl-5,7-dioxo-6^1,6^2,6^3,6^4,6^5,6^6-hexahydro-1^1H-8-oxa-2(4,2)-thiazola-1(5,3)-indola-6(1,3)-pyridazinacycloundecaphane-4-yl)-2-methylcyclopropane-1-carboxamide], the IC50 in the assay with AsPC-1 (G12D) is 2.9 nM; with SW480 (G12V) it was 6.1 nM.
For `CCn1c(-c2cc(-c3ncc(CN4CCS(=N)(=O)CC4)cn3)cnc2[C@H](C)OC)c2c3cc(ccc31)-c1csc(n1)C[C@H](NC(=O)[C@H]1C[C@@H]1C)C(=O)N1CCC[C@H](N1)C(=O)OCC(C)(C)C2` (atropisomer, axis not shown) [Compound 49, (1S,2S)-N-((6^3S,4S,Z)-1^1-ethyl-1^2-(5-(5-((1-imino-1-oxido-1λ^6-thiomorpholino)methyl)pyrimidin-2-yl)-2-((S)-1-methoxyethyl)pyridin-3-yl)-10,10-dimethyl-5,7-dioxo-6^1,6^2,6^3,6^4,6^5,6^6-hexahydro-1^1H-8-oxa-2(4,2)-thiazola-1(5,3)-indola-6(1,3)-pyridazinacycloundecaphane-4-yl)-2-methylcyclopropane-1-carboxamide], in that order: 1 nM and 4.3 nM.
Take `CCn1c(-c2cc(-c3ccc(CN4CC[C@@H](S(C)(=O)=O)C4)cn3)cnc2[C@H](C)OC)c2c3cc(ccc31)-c1csc(n1)C[C@H](NC(=O)[C@H]1C[C@@H]1C)C(=O)N1CCC[C@H](N1)C(=O)OCC(C)(C)C2` (atropisomer, axis not shown) [Compound 50, (1S,2S)-N-((6^3S,4S,Z)-1^1-ethyl-1^2-(6′-((S)-1-methoxyethyl)-5-(((R)-3-(methylsulfonyl)pyrrolidin-1-yl)methyl)-[2,3′-bipyridin]-5′-yl)-10,10-dimethyl-5,7-dioxo-6^1,6^2,6^3,6^4,6^5,6^6-hexahydro-1^1H-8-oxa-2(4,2)-thiazola-1(5,3)-indola-6(1,3)-pyridazinacycloundecaphane-4-yl)-2-methylcyclopropane-1-carboxamide]: the IC50 came out at 8.5 nM with AsPC-1 (G12D) and 7.8 nM in the assay with SW480 (G12V).
